Reference: patent publication US20250100997A1, “PYRIDAZINYL AMINO DERIVATIVES AS ALK5 INHIBITORS” (CHIESI FARMACEUTICI S.P.A., priority 2022, published 2025)

Biological target: T1, human ALK5 (recombinant TGF β1 N-term GST-tagged, 80-end) (Homo sapiens, UniProt P36897)
T1 construct: human ALK5 (recombinant TGF β1 N-term GST-tagged, 80-end); GST (N); purchased
T1 sequence (P36897 80-503 limits assumed): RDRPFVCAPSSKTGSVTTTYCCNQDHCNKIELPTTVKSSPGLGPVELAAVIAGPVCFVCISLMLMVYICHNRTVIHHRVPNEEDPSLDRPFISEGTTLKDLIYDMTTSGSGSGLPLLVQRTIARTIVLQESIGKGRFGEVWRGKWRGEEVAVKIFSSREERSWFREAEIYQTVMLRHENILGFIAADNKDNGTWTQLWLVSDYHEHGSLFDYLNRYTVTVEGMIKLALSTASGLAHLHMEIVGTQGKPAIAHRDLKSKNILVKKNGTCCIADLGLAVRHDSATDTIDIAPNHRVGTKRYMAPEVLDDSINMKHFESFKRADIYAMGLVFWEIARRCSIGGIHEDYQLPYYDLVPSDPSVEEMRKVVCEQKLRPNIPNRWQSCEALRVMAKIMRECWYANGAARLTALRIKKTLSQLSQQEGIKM
Test: ADP-GLO kinase assay, biochemical ALK5 assay
Details: pIC50 converted to pKi using the Cheng-Prusoff equation, ATP at Km, or high ATP (30-fold Km) for very potent compounds, 25° C.
Experimental: The enzymatic activity of compounds of the present invention was monitored measuring the formation of ADP using the ADP-GLO Kinases assay. Following the incubation of the purified enzyme, a substrate and ATP, the produced ADP was converted into ATP, which in turn was converted into light by Ultra-Glo Luciferase. The luminescent signal positively correlated with ADP amount and kinase activity. Briefly, the kinase reaction was performed by incubating 2.6 nM of the purified, commercially available human ALK5 (recombinant TGF β1 N-term GST-tagged, 80-end), a final concentration of TGFβ1 peptide 94.5 μM (Promega, T36-58) and ultra-pure ATP (Promega V915B). The ATP concentration was set at the Km value (concentration of substrate which permits the enzyme to achieve half maximal velocity (Vmax)) of ALK5 (0.5 μM). Compound and ALK5 kinase were mixed and incubated for 15 mins. Reactions were initiated by addition of ATP at a final concentration in the assay of […]. After an incubation of 120 min, the reaction was stopped, and ADP production detected with ADP-Glo kit according to manufacturer's indications. To overcome the assay wall limit for very potent compounds the assay protocol was changed by using a high ATP concentration (30-fold Km). Compounds and ALK5 kinase were mixed for 15 min and the reaction initiated by addition of TGFβ1 peptide and ATP at a final concentration in the assay of 15 μM. After an incubation of 60 min, the kinase reaction was stopped, and ADP production detected with ADP-Glo kit according to manufacturer's indications.
All reaction and incubation steps were performed at 25° C. and the assays were performed in 384-well format and validated using a selection of reference compounds tested in 11-point concentration-response curve.
Results were expressed as pIC50 (negative logarithm of IC50) and subsequently converted to pKi (negative logarithm of […]) using the Cheng-Prusoff equation. The higher the value of pKi, the greater the inhibition of ALK5 activity.

In the case of `CN1CCN(CCC(=O)Nc2cc(Nc3cc(-c4cc(Cl)ccc4F)nnc3C3=CCN(C(=O)OC(C)(C)C)CC3)ccn2)CC1` [Example 1, tert-butyl 4-[6-(5-chloro-2-fluorophenyl)-4-({2-[3-(4-methylpiperazin-1-yl)propanamido]pyridin-4-yl}amino)pyridazin-3-yl]-1,2,3,6-tetrahydropyridine-1-carboxylate], the Ki is reported as 1 to 3.16 nM.

In the case of `CN1CCN(CCC(=O)Nc2cc(Nc3cc(-c4cc(Cl)ccc4F)nnc3C3CCN(C(=O)OC(C)(C)C)CC3)ccn2)CC1` [Example 2, tert-butyl 4-[6-(5-chloro-2-fluorophenyl)-4-({2-[3-(4-methylpiperazin-1-yl)propanamido]pyridin-4-yl}amino)pyridazin-3-yl]piperidine-1-carboxylate], the Ki is reported as 1 to 3.16 nM.

For `CN1CCN(CCC(=O)Nc2cc(Nc3cc(-c4cc(Cl)ccc4F)nnc3C3=CCNCC3)ccn2)CC1` [Example 3, N-(4-{[6-(5-chloro-2-fluorophenyl)-3-(1,2,3,6-tetrahydropyridin-4-yl)pyridazin-4-yl]amino}pyridin-2-yl)-3-(4-methylpiperazin-1-yl)propanamide], the Ki was 1 to 3.16 nM.

With `CN1CCN(CCC(=O)Nc2cc(Nc3cc(-c4cc(Cl)ccc4F)nnc3C3CCNCC3)ccn2)CC1` [Example 4, N-(4-{[6-(5-chloro-2-fluorophenyl)-3-(piperidin-4-yl)pyridazin-4-yl]amino}pyridin-2-yl)-3-(4-methylpiperazin-1-yl)propanamide] the Ki was 0.126 to 0.794 nM.

`COC(=O)N1CC=C(c2nnc(-c3cc(Cl)ccc3F)cc2Nc2ccnc(NC(=O)CCN3CCN(C)CC3)c2)CC1` [Example 5, methyl 4-[6-(5-chloro-2-fluorophenyl)-4-({2-[3-(4-methylpiperazin-1-yl)propanamido]pyridin-4-yl}amino)pyridazin-3-yl]-1,2,3,6-tetrahydropyridine-1-carboxylate] showed a Ki of 1 to 3.16 nM.

With `CN1CC=C(c2nnc(-c3cc(Cl)ccc3F)cc2Nc2ccnc(NC(=O)CCN3CCN(C)CC3)c2)CC1` [Example 6, N-(4-{[6-(5-chloro-2-fluorophenyl)-3-(1-methyl-1,2,3,6-tetrahydropyridin-4-yl)pyridazin-4-yl]amino}pyridin-2-yl)-3-(4-methylpiperazin-1-yl)propanamide] the Ki was 1 to 3.16 nM.

`COC(=O)N1CCC(c2nnc(-c3cc(Cl)ccc3F)cc2Nc2ccnc(NC(=O)CCN3CCN(C)CC3)c2)CC1` [Example 7, methyl 4-[6-(5-chloro-2-fluorophenyl)-4-({2-[3-(4-methylpiperazin-1-yl)propanamido]pyridin-4-yl}amino)pyridazin-3-yl]piperidine-1-carboxylate] was tested, and the Ki was 0.126 to 0.794 nM.

With `CN1CCC(c2nnc(-c3cc(Cl)ccc3F)cc2Nc2ccnc(NC(=O)CCN3CCN(C)CC3)c2)CC1` [Example 8, N-(4-{[6-(5-chloro-2-fluorophenyl)-3-(1-methylpiperidin-4-yl)pyridazin-4-yl]amino}pyridin-2-yl)-3-(4-methylpiperazin-1-yl)propanamide] the Ki was 1 to 3.16 nM.

`CN1CCN(CCC(=O)Nc2cc(Nc3cc(-c4cc(Cl)ccc4F)nnc3C3CN(C(=O)OC(C)(C)C)C3)ccn2)CC1` [Example 9, tert-butyl 3-[6-(5-chloro-2-fluorophenyl)-4-({2-[3-(4-methylpiperazin-1-yl)propanamido]pyridin-4-yl}amino)pyridazin-3-yl]azetidine-1-carboxylate] showed a Ki of 0.126 to 0.794 nM.

`CN1CCN(CCC(=O)Nc2cc(Nc3cc(-c4cc(Cl)ccc4F)nnc3C3CNC3)ccn2)CC1` [Example 10, N-(4-{[3-(azetidin-3-yl)-6-(5-chloro-2-fluorophenyl)pyridazin-4-yl]amino}pyridin-2-yl)-3-(4-methylpiperazin-1-yl)propanamide] showed a Ki of 0.126 to 0.794 nM.

`CN1CCN(CCC(=O)Nc2cc(Nc3cc(-c4cc(Cl)ccc4F)nnc3C3=CCCN(C(=O)OC(C)(C)C)C3)ccn2)CC1` [Example 11, tert-butyl 5-[6-(5-chloro-2-fluorophenyl)-4-({2-[3-(4-methylpiperazin-1-yl)propanamido]pyridin-4-yl}amino)pyridazin-3-yl]-1,2,3,6-tetrahydropyridine-1-carboxylate] gave a Ki of 0.126 to 0.794 nM.

`CN1CCN(CCC(=O)Nc2cc(Nc3cc(-c4cc(Cl)ccc4F)nnc3C3=CCCNC3)ccn2)CC1` [Example 12, N-(4-{[6-(5-chloro-2-fluorophenyl)-3-(1,2,5,6-tetrahydropyridin-3-yl)pyridazin-4-yl]amino}pyridin-2-yl)-3-(4-methylpiperazin-1-yl)propanamide] was tested, and the Ki was 1 to 3.16 nM.

For `CN1CCN(CCC(=O)Nc2cc(Nc3cc(-c4cc(Cl)ccc4F)nnc3C3=CCCN(C)C3)ccn2)CC1` [Example 13, N-(4-{[6-(5-chloro-2-fluorophenyl)-3-(1-methyl-1,2,5,6-tetrahydropyridin-3-yl)pyridazin-4-yl]amino}pyridin-2-yl)-3-(4-methylpiperazin-1-yl)propanamide], the Ki was 1 to 3.16 nM.

Work on `CC(=O)N1CCC=C(c2nnc(-c3cc(Cl)ccc3F)cc2Nc2ccnc(NC(=O)CCN3CCN(C)CC3)c2)C1` [Example 14, N-(4-{[3-(1-acetyl-1,2,5,6-tetrahydropyridin-3-yl)-6-(5-chloro-2-fluorophenyl)pyridazin-4-yl]amino}pyridin-2-yl)-3-(4-methylpiperazin-1-yl)propanamide] yielded a Ki of 1 to 3.16 nM.

In the case of `CN1CCN(CCC(=O)Nc2cc(Nc3cc(-c4cc(Cl)ccc4F)nnc3C3CCN3C(=O)OC(C)(C)C)ccn2)CC1` (centres unmarked) [Example 15, tert-butyl 2-[6-(5-chloro-2-fluorophenyl)-4-({2-[3-(4-methylpiperazin-1-yl)propanamido]pyridin-4-yl}amino)pyridazin-3-yl]azetidine-1-carboxylate], the Ki is reported as 0.126 to 0.794 nM.

Molecule `CN1CCN(CCC(=O)Nc2cc(Nc3cc(-c4cc(Cl)ccc4F)nnc3C3CCN3)ccn2)CC1` (centres unmarked) [Example 16, N-(4-{[3-(azetidin-2-yl)-6-(5-chloro-2-fluorophenyl)pyridazin-4-yl]amino}pyridin-2-yl)-3-(4-methylpiperazin-1-yl)propanamide] has a Ki of 0.126 to 0.794 nM.

With `CN1CCN(CCC(=O)Nc2cc(Nc3cc(-c4cc(Cl)ccc4F)nnc3C3CCC(=O)N3C)ccn2)CC1` (centres unmarked) [Example 17, N-(4-((6-(5-chloro-2-fluorophenyl)-3-(1-methyl-5-oxopyrrolidin-2-yl)pyridazin-4-yl)amino)pyridin-2-yl)-3-(4-methylpiperazin-1-yl)propanamide] the Ki was 1 to 3.16 nM.

Work on `CN1CCN(CCC(=O)Nc2cc(Nc3cc(-c4cc(Cl)ccc4F)nnc3C3CCO3)ccn2)CC1` (centres unmarked) [Example 18, N-(4-{[6-(5-chloro-2-fluorophenyl)-3-(oxetan-2-yl)pyridazin-4-yl]amino}pyridin-2-yl)-3-(4-methylpiperazin-1-yl)propanamide] yielded a Ki of 0.126 to 0.794 nM.

Molecule `CN1CCN(CCC(=O)Nc2cc(Nc3cc(-c4cc(Cl)ccc4F)nnc3C3CCC(=O)S3)ccn2)CC1` (centres unmarked) [Example 19, N-(4-((6-(5-chloro-2-fluorophenyl)-3-(5-oxotetrahydrothiophen-2-yl)pyridazin-4-yl)amino)pyridin-2-yl)-3-(4-methylpiperazin-1-yl)propanamide] has a Ki of 0.126 to 0.794 nM.

With `CN1CCN(CCC(=O)Nc2cc(Nc3cc(-c4cc(Cl)ccc4F)nnc3C3COC(C)(C)N3C(=O)OC(C)(C)C)ccn2)CC1` (centres unmarked) [Example 20, tert-butyl 4-(6-(5-chloro-2-fluorophenyl)-4-((2-(3-(4-methylpiperazin-1-yl)propanamido)pyridin-4-yl)amino)pyridazin-3-yl)-2,2-dimethyloxazolidine-3-carboxylate] the Ki was 0.126 to 0.794 nM.
